# Laboratory results published in US20240101576A1, “HETEROCYCLIC INHIBITORS OF EGFR AND/OR HER2, FOR USE IN THE TREATMENT OF CANCER” (Scorpion Therapeutics, Inc., priority 2020, published 2024).
# Experiments:
# Format in all cases: cell-based
# [1] = biological target: T1, EGFR L858R/C797S (Ba/F3 cells) (Homo sapiens, UniProt P00533, C797S/L858R); experiment: Inhibitor activity on EGFR-dependent cell growth (CellTiter-Glo, 72 h), Ba/F3 EGFR L858R/C797S; conditions: read-out: BaF3 L858R/C797S IC50
# T1 construct: expressed in transfected cells; host or cells: Ba/F3 (murine pro-B cells), retroviral transduction, puromycin selection, IL3-independent pool
# In short: (§1)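 IC50s derive from a sigmoidal dose–response fit of CellTiter-Glo signal. The signal was normalised between […]-treated cells and cell-free medium. Ba/F3 mutant-EGFR cells, seeded at 400–800/well depending on the line, had 72 h of exposure to a 10-point, 3-fold compound series.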
# [2] = biological target: T2, EGFR exon 20 FQEA Ins A763_V764 (Ba/F3 cells) (Homo sapiens, UniProt P00533, INS763FQEA); experiment: Inhibitor activity on EGFR-dependent cell growth (CellTiter-Glo, 72 h), Ba/F3 EGFR exon 20 FQEA Ins; conditions: read-out: BaF3 FQEA IC50
# T2 construct: expressed in transfected cells; host or cells: Ba/F3 (murine pro-B cells), retroviral transduction, puromycin selection, IL3-independent pool
# T2 sequence (P00533 with tags, fused parts or gaps INS763FQEA): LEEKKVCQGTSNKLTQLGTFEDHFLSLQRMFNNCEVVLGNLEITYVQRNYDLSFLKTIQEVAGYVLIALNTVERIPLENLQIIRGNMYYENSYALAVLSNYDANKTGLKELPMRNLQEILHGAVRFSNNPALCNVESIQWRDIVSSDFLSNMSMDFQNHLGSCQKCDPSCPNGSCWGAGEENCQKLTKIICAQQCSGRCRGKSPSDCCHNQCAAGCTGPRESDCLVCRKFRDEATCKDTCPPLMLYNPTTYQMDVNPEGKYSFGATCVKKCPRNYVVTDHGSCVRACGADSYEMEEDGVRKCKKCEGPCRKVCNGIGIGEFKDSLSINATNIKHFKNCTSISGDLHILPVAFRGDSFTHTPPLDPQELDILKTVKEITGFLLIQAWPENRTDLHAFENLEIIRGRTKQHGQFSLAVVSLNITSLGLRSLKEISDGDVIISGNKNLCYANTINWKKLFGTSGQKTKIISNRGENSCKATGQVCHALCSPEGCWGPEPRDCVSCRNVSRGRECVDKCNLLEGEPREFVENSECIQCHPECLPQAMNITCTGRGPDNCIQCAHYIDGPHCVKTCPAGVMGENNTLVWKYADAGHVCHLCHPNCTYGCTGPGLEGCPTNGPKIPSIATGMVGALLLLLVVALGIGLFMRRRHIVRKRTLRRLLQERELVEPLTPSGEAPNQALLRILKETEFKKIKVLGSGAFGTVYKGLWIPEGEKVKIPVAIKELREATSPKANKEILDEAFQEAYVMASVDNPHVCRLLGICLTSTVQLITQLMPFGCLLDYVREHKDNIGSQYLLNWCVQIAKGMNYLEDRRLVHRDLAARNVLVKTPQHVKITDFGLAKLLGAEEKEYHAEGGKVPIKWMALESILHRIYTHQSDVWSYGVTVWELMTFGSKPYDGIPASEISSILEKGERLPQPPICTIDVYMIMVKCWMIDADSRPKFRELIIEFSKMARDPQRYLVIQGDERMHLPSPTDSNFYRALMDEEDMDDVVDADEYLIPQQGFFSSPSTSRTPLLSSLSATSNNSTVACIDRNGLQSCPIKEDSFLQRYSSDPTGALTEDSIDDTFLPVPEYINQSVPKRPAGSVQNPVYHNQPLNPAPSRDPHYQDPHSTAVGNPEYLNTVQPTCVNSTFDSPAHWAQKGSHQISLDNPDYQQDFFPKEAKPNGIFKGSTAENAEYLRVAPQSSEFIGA
# In short: as §1
# EGFR L858R (Ba/F3 cells) [3] = biological target: T3, EGFR L858R (Ba/F3 cells) (Homo sapiens, UniProt P00533, L858R); experiment: Inhibitor activity on EGFR-dependent cell growth (CellTiter-Glo, 72 h), Ba/F3 EGFR L858R; conditions: read-out: BaF3 L858R IC50
# T3 construct: expressed in transfected cells; host or cells: Ba/F3 (murine pro-B cells), retroviral transduction, puromycin selection, IL3-independent pool
# In short: as §1
# [4] = biological target: T4, EGFR exon 19del (Ba/F3 cells) (Homo sapiens, UniProt P00533); experiment: Inhibitor activity on EGFR-dependent cell growth (CellTiter-Glo, 72 h), Ba/F3 EGFR exon 19del; conditions: Ba/F3 EGFR exon 19del cell growth, read-out: BaF3 Del19 IC50
# T4 sequence (P00533 with tags, fused parts or gaps DEL746-750): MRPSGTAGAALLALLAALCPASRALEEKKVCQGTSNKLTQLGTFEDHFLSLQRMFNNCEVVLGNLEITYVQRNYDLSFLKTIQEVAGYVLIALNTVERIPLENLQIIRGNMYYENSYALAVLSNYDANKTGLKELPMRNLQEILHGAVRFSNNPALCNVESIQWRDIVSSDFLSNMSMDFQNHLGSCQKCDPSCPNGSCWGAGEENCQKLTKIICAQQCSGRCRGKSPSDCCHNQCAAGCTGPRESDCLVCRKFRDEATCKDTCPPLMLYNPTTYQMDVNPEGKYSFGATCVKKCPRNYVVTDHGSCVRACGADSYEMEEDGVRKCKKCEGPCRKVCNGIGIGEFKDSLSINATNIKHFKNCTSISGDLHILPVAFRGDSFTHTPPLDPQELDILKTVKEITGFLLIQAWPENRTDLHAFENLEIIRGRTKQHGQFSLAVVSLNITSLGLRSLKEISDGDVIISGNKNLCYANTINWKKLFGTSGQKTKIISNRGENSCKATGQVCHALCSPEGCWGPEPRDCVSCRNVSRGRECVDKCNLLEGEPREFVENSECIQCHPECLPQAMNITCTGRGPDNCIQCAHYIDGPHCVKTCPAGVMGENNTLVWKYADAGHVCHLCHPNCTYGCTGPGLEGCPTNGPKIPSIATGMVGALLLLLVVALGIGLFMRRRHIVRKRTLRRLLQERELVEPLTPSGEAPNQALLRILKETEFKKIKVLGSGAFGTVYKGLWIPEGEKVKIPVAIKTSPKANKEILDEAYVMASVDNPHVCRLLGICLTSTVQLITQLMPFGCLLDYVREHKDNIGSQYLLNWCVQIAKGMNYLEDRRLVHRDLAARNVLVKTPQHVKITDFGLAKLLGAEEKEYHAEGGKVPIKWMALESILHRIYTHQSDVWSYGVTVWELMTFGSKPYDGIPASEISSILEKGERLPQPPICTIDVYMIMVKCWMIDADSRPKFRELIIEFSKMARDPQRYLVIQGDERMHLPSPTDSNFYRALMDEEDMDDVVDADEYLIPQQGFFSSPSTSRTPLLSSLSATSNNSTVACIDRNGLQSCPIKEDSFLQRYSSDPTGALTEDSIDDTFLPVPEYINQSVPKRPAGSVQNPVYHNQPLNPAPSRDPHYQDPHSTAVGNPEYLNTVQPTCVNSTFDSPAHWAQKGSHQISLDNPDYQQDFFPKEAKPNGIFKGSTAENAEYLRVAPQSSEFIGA
# In short: as §1
# EGFR L858R (Ba/F3 cells) [5] = biological target: T3, EGFR L858R (Ba/F3 cells); experiment: Inhibitor activity on EGFR phosphorylation (pEGFR AlphaLISA, 2 h), Ba/F3 EGFR L858R
# In short: (§2)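 Ba/F3 cells made IL3-independent by retroviral EGFR mutant expression (puromycin-selected, pooled) and CUTO14 cells were seeded at 50K or 12.5K cells/well, respectively. They were treated 2 h with a 3-fold, 10-point compound series, lysed, and phospho-EGFR was read by AlphaLISA to give IC50.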
# [6] = biological target: T5, EGFR exon 20 NPG Ins D770_N771 (Ba/F3 cells) (Homo sapiens, UniProt P00533, INS770NPG); experiment: Inhibitor activity on EGFR-dependent cell growth (CellTiter-Glo, 72 h), Ba/F3 EGFR exon 20 NPG Ins; conditions: read-out: BaF3 NPG IC50
# T5 construct: expressed in transfected cells; host or cells: Ba/F3 (murine pro-B cells), retroviral transduction, puromycin selection, IL3-independent pool
# T5 sequence (P00533 with tags, fused parts or gaps INS770NPG): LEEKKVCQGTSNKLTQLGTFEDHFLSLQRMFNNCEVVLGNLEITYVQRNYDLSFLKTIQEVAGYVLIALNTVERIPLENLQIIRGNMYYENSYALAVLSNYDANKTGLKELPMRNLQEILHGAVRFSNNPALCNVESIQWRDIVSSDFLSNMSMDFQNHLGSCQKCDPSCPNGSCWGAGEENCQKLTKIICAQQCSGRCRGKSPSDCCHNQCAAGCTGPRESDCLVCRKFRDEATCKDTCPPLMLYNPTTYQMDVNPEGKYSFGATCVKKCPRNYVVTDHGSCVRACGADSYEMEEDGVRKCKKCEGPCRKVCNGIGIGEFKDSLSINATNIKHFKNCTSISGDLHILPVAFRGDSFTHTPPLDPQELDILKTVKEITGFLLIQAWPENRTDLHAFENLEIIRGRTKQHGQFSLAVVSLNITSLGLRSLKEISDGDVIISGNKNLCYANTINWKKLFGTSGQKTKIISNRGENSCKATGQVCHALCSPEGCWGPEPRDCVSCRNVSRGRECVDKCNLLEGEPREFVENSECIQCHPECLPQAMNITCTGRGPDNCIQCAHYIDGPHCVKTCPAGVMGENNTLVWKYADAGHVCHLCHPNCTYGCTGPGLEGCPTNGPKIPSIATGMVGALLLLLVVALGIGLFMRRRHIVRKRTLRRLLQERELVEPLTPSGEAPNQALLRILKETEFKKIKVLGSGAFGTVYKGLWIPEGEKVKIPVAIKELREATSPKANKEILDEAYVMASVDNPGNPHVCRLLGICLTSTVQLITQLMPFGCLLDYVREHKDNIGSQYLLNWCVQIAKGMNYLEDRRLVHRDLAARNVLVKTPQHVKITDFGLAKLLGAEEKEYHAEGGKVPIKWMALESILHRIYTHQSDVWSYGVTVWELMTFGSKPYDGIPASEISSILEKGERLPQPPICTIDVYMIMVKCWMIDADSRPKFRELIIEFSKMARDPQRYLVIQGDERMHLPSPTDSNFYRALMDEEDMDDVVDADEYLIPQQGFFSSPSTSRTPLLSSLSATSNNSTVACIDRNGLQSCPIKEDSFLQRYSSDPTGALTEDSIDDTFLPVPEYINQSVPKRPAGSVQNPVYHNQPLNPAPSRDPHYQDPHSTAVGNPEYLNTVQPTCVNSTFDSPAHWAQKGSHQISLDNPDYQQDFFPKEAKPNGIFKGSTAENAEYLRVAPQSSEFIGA
# In short: as §1
# [7] = biological target: T6, EGFR exon 20 ASV Ins V769_D770 (Ba/F3 cells) (Homo sapiens, UniProt P00533, INS769ASV); experiment: Inhibitor activity on EGFR phosphorylation (pEGFR AlphaLISA, 2 h), Ba/F3 EGFR exon 20 ASV Ins; conditions: EGFR phosphorylation, AlphaLISA, 2 hours; read-out: ASV IC50 (pEGFR)
# T6 construct: expressed in transfected cells; host or cells: Ba/F3 (murine pro-B cells), retroviral transduction, puromycin selection, IL3-independent pool
# In short: as §2
# [8] = biological target: T1, EGFR L858R/C797S (Ba/F3 cells); experiment: Inhibitor activity on EGFR phosphorylation (pEGFR AlphaLISA, 2 h), Ba/F3 EGFR L858R/C797S
# In short: as §2
# [9] = biological target: T7, EGFR exon 20 SVD Ins D770_N771 (Ba/F3 cells) (Homo sapiens, UniProt P00533, INS770SVD); experiment: Inhibitor activity on EGFR phosphorylation (pEGFR AlphaLISA, 2 h), Ba/F3 EGFR exon 20 SVD Ins
# T7 construct: expressed in transfected cells; host or cells: Ba/F3 (murine pro-B cells), retroviral transduction, puromycin selection, IL3-independent pool
# T7 sequence (P00533 with tags, fused parts or gaps INS770SVD): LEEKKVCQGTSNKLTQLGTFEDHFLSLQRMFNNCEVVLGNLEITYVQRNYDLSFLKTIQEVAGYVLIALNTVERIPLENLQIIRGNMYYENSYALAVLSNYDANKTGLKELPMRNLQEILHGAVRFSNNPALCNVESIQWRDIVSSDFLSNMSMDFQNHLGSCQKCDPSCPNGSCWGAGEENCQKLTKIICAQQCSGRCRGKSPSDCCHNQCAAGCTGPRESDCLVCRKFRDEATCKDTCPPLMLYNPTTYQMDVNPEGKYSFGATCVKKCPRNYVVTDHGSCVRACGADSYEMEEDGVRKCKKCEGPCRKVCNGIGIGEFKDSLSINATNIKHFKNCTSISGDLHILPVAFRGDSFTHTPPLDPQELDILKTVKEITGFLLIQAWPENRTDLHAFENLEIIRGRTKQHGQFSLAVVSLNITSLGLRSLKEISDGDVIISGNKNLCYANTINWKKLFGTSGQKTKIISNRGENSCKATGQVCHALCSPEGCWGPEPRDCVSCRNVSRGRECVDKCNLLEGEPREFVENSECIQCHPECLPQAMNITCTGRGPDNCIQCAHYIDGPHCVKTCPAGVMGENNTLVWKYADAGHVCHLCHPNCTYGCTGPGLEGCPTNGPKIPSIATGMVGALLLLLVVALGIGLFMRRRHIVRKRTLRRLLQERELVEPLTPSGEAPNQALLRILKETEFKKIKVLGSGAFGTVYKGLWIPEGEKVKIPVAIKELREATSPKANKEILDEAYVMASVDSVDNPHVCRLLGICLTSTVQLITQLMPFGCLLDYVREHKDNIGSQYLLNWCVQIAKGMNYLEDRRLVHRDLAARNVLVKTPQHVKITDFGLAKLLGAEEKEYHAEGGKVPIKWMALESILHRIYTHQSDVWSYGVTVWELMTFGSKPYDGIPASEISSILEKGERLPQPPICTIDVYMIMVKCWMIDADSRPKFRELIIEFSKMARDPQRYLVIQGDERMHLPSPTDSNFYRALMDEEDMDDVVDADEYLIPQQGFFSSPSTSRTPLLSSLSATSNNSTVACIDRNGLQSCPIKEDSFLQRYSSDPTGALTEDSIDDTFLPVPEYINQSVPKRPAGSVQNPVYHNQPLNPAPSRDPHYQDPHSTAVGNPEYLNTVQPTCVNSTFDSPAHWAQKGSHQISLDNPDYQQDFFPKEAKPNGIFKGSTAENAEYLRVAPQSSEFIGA
# From the text: Example B. Inhibitor Activity on EGFR phosphorylation (pEGFR)
# EGFR mutant Ba/F3 cells were generated by transduction with retrovirus containing vectors expressing EGFR L858R, EGFR exon 19del, EGFR L858R/C797S, EGFR exon 20 NPG Ins D770_N771, EGFR exon 20 ASV Ins V769_D770, or EGFR exon 20 SVD Ins D770_N771 genes along with a puromycin selection marker. Transduced cells are selected with puromycin for 7 days and are then be transferred into culture media without Interleukin 3 (IL3). Surviving cells are confirmed to express EGFR by Western blot and maintained as a pool. CUTO14 cells were obtained from Dr. Robert C. Doebele at the University of Colorado. The IC50 date are included in Table 6 and Table 7.
# 1.1 Cells are harvested from flask into cell culture medium and the cell number counted.
# 1.2 Cells are diluted with culture medium to the desired density and 40 μL of cell suspension is added into each well of 384-well cell culture plate and the seeding density is 50K cells/well (Ba/F3) or 12.5K cells/well (CUTO14).
# 2 Compound Preparation and Treatment
# 2.1 Test compounds are dissolved to 10 mM in a DMSO stock solution. 45 μL of stock solution is transferred to a 384 polypropylene plate (pp-plate). Perform 3-fold, 10-point dilution via transferring 15 μL compound into 30 μL DMSO using a TECAN (EVO200) liquid handler.
# 2.2 Spin plates at room temperature at 1,000 RPM for 1 minute.
# 2.3 Transfer 5 nL of diluted compound from compound source plate into the cell plate.
# 2.4 After compound treatment for 2 hours, perform pEGFR detection by AlphaLISA for compound treatment plates as described in “Detection” section.
# 3 Detection by pEGFR AlphaLISA (Perkin-Elmer)
# 3.1 Plates are removed from incubators and equilibrated at room temperature for 10 minutes, and media was removed
# 3.2 10 μL of lysis buffer is added and plates shaken at 600 rpm for 1 hr.
# 3.3 Prepare acceptor mix just before use and dispense 5 μL of acceptor mix to all the wells. Shake 350 rpm for Ihr in the dark
# 3.4 Prepare donor mix under low light conditions prior to use. Dispense 5 μL of donor mix to all the wells. Mix well on the shaker, seal and wrap in aluminum foil and incubate 1.5 hrs at room temperature in the dark
# 3.5 Transfer 18.5 μL mixture to OptiPlate 384, and read using an Envision. The IC50 date were included in Table 6 and Table 7.
# EGFR WT (Ba/F3 cells) = biological target: T8, EGFR WT (Ba/F3 cells) (Homo sapiens, UniProt P00533); experiment: Inhibitor activity on EGFR-dependent cell growth (CellTiter-Glo, 72 h), Ba/F3 EGFR WT; conditions: read-out: BaF3 WT IC50
# T8 construct: expressed in transfected cells; host or cells: Ba/F3 (murine pro-B cells), retroviral transduction, puromycin selection, maintained with EGF
# In short: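 This growth assay used Ba/F3 cells that depend on wild-type EGFR and are kept in EGF without IL3. Compounds were made up as 10 mM DMSO stocks and diluted 3-fold over 10 points. 120 nL went onto 600 cells/well. After 72 hours, 40 μL CellTiter-Glo was added and luminescence read on EnVision after 30 min.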
# [10] = biological target: T5, EGFR exon 20 NPG Ins D770_N771 (Ba/F3 cells); experiment: Inhibitor activity on EGFR phosphorylation (pEGFR AlphaLISA, 2 h), Ba/F3 EGFR exon 20 NPG Ins
# In short: as §2
# EGFR (CUTO14 cells) = EGFR (CUTO14 cells) (Homo sapiens, UniProt P00533); experiment: Inhibitor activity on EGFR phosphorylation (pEGFR AlphaLISA, 2 h), CUTO14 cells
# In short: as §2
# [11] = biological target: T4, EGFR exon 19del (Ba/F3 cells); experiment: Inhibitor activity on EGFR phosphorylation (pEGFR AlphaLISA, 2 h), Ba/F3 EGFR exon 19del; conditions: read-out: Del19 IC50 (pEGFR)
# In short: as §2
# [12] = biological target: T7, EGFR exon 20 SVD Ins D770_N771 (Ba/F3 cells); experiment: Inhibitor activity on EGFR-dependent cell growth (CellTiter-Glo, 72 h), Ba/F3 EGFR exon 20 SVD Ins; conditions: read-out: BaF3 SVD IC50
# In short: as §1
# [13] = biological target: T6, EGFR exon 20 ASV Ins V769_D770 (Ba/F3 cells); experiment: Inhibitor activity on EGFR-dependent cell growth (CellTiter-Glo, 72 h), Ba/F3 EGFR exon 20 ASV Ins; conditions: read-out: BaF3 ASV IC50
# In short: as §1
Compound,IC50 [1] [nM],IC50 [2] [nM],IC50 (EGFR L858R (Ba/F3 cells) [3]) [nM],IC50 [4] [nM],IC50 (EGFR L858R (Ba/F3 cells) [5]) [nM],IC50 [6] [nM],IC50 [7] [nM],IC50 [8] [nM],IC50 [9] [nM],IC50 (EGFR WT (Ba/F3 cells)) [nM],IC50 [10] [nM],IC50 (EGFR (CUTO14 cells)) [nM],IC50 [11] [nM],IC50 [12] [nM],IC50 [13] [nM]
"COc1c(Cl)cccc1Nc1c(-c2ccnc3ccoc23)[nH]c2c1C(=O)NCC2 [compound 750, 3-[(3-chloro-2-methoxyphenyl)amino]-2-[furo[3,2-b]pyridin-7-yl]-1H,5H,6H,7H-pyrrolo[3,2-c]pyridin-4-one]",< 100,< 100,< 100,< 100,< 100,< 100,< 100,< 100,< 100,100 to 1000,< 100,< 100,< 100,,
COc1c(Cl)cccc1Nc1c(-c2ccncc2F)[nH]c2c1C(=O)NC[C@@]21CCN(CC(F)(F)F)C1 [compound 817],< 100,< 100,< 100,< 100,< 100,< 100,< 100,< 100,< 100,100 to 1000,< 100,< 100,< 100,< 100,< 100
"COc1c(Cl)cccc1Nc1c(-c2ccncc2F)[nH]c2c1C(=O)NC[C@@H]2C[C@H]1COCCO1 [Compound 481, (7S)-3-[(3-chloro-2-methoxyphenyl)amino]-7-[(2S)-1,4-dioxan-2-ylmethyl]-2-(3-fluoropyridin-4-yl)-1H,5H,6H,7H-pyrrolo[3,2-c]pyridin-4-one]",< 100,< 100,< 100,< 100,< 100,< 100,< 100,< 100,< 100,100 to 1000,< 100,< 100,< 100,,
"COc1c(Cl)cccc1Nc1c(-c2ccnc(N)n2)[nH]c2c1C(=O)NC[C@H]2C[C@@H]1COCCO1 [Compound 567, (7R)-2-(2-aminopyrimidin-4-yl)-3-[(3-chloro-2-methoxyphenyl)amino]-7-[(2R)-1,4-dioxan-2-ylmethyl]-1H,5H,6H,7H-pyrrolo[3,2-c]pyridin-4-one]",,< 100,< 100,< 100,,< 100,< 100,,< 100,100 to 1000,< 100,< 100,,< 100,< 100
"COc1c(Cl)cccc1Nc1c(-c2ccnc(C)n2)[nH]c2c1C(=O)NC[C@@H]2CC1COCCO1 (stereo in doubt) [Compound 551, (7S)-3-[(3-chloro-2-methoxyphenyl)amino]-7-[(2R)-1,4-dioxan-2-ylmethyl]-2-(2-methylpyrimidin-4-yl)-1H,5H,6H,7H-pyrrolo[3,2-c]pyridin-4-one]",< 100,100 to 1000,< 100,< 100,< 100,< 100,< 100,< 100,< 100,100 to 1000,< 100,< 100,< 100,,
COCC[C@H]1CNC(=O)c2c1[nH]c(-c1ccncc1F)c2Nc1cccc(Cl)c1OC [Compound 747],< 100,< 100,< 100,< 100,< 100,< 100,< 100,< 100,< 100,< 100,< 100,< 100,< 100,,

# More lines, now with the values ahead:
IC50 [1] [nM],IC50 [2] [nM],IC50 (EGFR L858R (Ba/F3 cells) [3]) [nM],IC50 [4] [nM],IC50 (EGFR L858R (Ba/F3 cells) [5]) [nM],IC50 [6] [nM],IC50 [7] [nM],IC50 [8] [nM],IC50 [9] [nM],IC50 (EGFR WT (Ba/F3 cells)) [nM],IC50 [10] [nM],IC50 (EGFR (CUTO14 cells)) [nM],IC50 [11] [nM],IC50 [12] [nM],IC50 [13] [nM],Compound
,< 100,< 100,< 100,,< 100,< 100,,< 100,< 100,< 100,< 100,,< 100,< 100,"COc1c(Cl)cccc1Nc1c(-c2ccnc(Nc3ccn(CC(F)F)n3)n2)[nH]c2c1C(=O)NCC2 [compound 515, 3-[(3-chloro-2-methoxyphenyl)amino]-2-(2-{[1-(2,2-difluoroethyl)pyrazol-3-yl]amino}pyrimidin-4-yl)-1H,5H,6H,7H-pyrrolo[3,2-c]pyridin-4-one]"
< 100,< 100,< 100,< 100,< 100,< 100,< 100,< 100,< 100,< 100,< 100,< 100,< 100,,,"COc1c(Cl)cccc1Nc1c(-c2ccncc2F)[nH]c2c1C(=O)NC[C@@H]2C[C@@H]1COCCO1 [Compound 482, (S)-7-(((R)-1,4-dioxan-2-yl)methyl)-3-((3-chloro-2-methoxyphenyl)amino)-2-(3-fluoropyridin-4-yl)-1,5,6,7-tetrahydro-4H-pyrrolo[3,2-c]pyridin-4-one]"
< 100,< 100,< 100,< 100,< 100,< 100,< 100,< 100,< 100,100 to 1000,< 100,< 100,< 100,,,"COc1c(Cl)cccc1Nc1c(-c2ccnc(C)n2)[nH]c2c1C(=O)NC[C@H]2C[C@@H]1COCCO1 (single isomer, unassigned) [Compound 570]"
